Patent US20120009320A1, “COMPOSITIONS COMPRISING MONATIN AND CALCIUM” (priority 2009, published 2012)
Counter-ions that a name gives are not always drawn.

Legend:
[1] = system: panelists; test: Sweetness matching of monatin/salt combinations in water pH 7 and citric/citrate buffer pH 3, Examples 3-5; format: in vivo, human; conditions: Monatin only (40 ppm), no salt
Protocol: Test and reference solutions were prepared in the same medium. The SEVs of monatin/salt combinations at the appropriate concentrations were measured and compared to the SEV of monatin measured in the absence of any salts. […] Monatin-containing test samples and sucrose references were prepared in the same medium. Based on the previous observations that the sweetness of monatin relative to sucrose is sweeter at acidic pH, this study was carried out under two pH conditions; specifically, in water at pH 7-7.5 and in a citric/citrate buffer at pH 3.0. 2R,4R-Monatin mono potassium salt was used as an illustrative form of monatin for the experiments below. All monatin solutions were prepared ‘as is’, i.e., a 40 ppm monatin solution is 40 ppm of monatin mono potassium salt. A sweetness matching procedure was adopted. […] Each test sample was either monatin control or monatin plus designated salt at the stated concentration. Panelists were instructed to taste the test sample and then to identify the reference sample that matched the perceived sweetness of the test sample. If the sweetness of the test sample was judged to fall between that of two references, panelists were instructed to estimate sweetness to one decimal point. Panelists evaluated each sample in duplicate. Results for each test sample were averaged. […] The five samples were tested at pH 7 (water medium) and at pH 3 (citric/citrate buffer). […] The weight percent of calcium in the salt is different for each of the calcium salts. As such, the weight percent of the calcium salt in each sample is calculated in order to determine how much salt is needed to deliver 1200 ppm of calcium cations. […] The weight percent of the other calcium salts is similarly calculated based on the molar weight percent of calcium in the calcium salt. […] The samples were created at pH 3 and pH 7. The impact of other metal ions, specifically potassium and magnesium, (i.e. […] These ions were tested in the form and concentrations found in cow's milk.

[2] = Sweetness match of monatin-sweetened chocolate milk to 10% sucrose target; format: in vivo
Protocol: A chocolate milk composition sweetened with 42 DE high fructose corn syrup (HFCS) to about 10% sucrose was prepared by conventional methods common to one skilled in the art of flavored milk manufacturing to serve as a sweetness target. The amount of monatin in the five samples was about 25 ppm, about 30 ppm, about 35 ppm, about 40 ppm and about 45 ppm. Each of the five samples of monatin-sweetened milk were compared to the target milk sample containing 10% sucrose. The monatin-sweetened milk that most closely matched the sweetness of the target sucrose sample was chosen.

[3] = Sweetness match of monatin-sweetened strawberry yogurt to 8% sucrose target; format: in vivo
Protocol: A strawberry yogurt sweetened with about 8% sucrose was prepared by conventional methods common to one skilled in the art of yogurt manufacturing to serve as a sweetness target. […] The monatin-sweetened yogurt that most closely matched the sweetness of the target sucrose sample was chosen.

[4] = system: panelists; test: Concentration-response of monatin sweetness (SEV) in milk and diluted yogurt, Example 2; format: in vivo, human
Protocol: Monatin, aspartame and sucralose samples were prepared in milk (2% fat) and diluted with plain, fat-free yogurt. Sucrose reference solutions were prepared in solutions of the same medium.
Panelists (8-10) were presented with a range (2-12%; w/v) of sucrose reference solutions and a single test sample. They were instructed to taste the test sample and then to identify the reference sample that matched the perceived sweetness of the test sample. If the sweetness of the test sample was judged to fall between that of two references, panelists were asked to estimate sweetness to one decimal point. Panelists evaluated each sample in duplicate. All results for each test sample were averaged.
Sweetener test samples and sucrose references were prepared as solutions in the following mediums: • (1) Milk (2% fat) at pH 6.8. • (2) A diluted plain (unsweetened and unflavored) yogurt was sheared with water (80 parts yogurt and 20 parts water) to yield an acidic solution based on fermented milk with a final pH of 4.6.

[5] = Sweetness of monatin stereoisomers relative to sucrose by weight (from SEV); format: in vivo; conditions: general statement of the description; listed as R,R stereoisomer of monatin, mono potassium salt
Protocol: As used herein, “sucrose equivalency value”, or SEV, is a measure of sweetness. The SEV is the concentration (% w/v) of a sucrose solution that gives a degree of sweetness that is perceived to be the same degree of sweetness as that of a test sample. For purposes of this disclosure, the SEV of an aqueous or dairy solution containing monatin is determined through comparison of the monatin-containing solution to a series of sucrose containing solutions prepared in the same medium (see Example 1).
Monatin-containing compositions are described herein as being “X” times as sweet as sucrose. The various stereoisomers of monatin are also described as being “X” times sweeter than sucrose. These values are determined from the SEV of the compositions.

[6] = Sweetness match of monatin-sweetened vanilla ice cream to 13% sucrose target; format: in vivo
Protocol: A vanilla ice cream sweetened with about 13% sucrose was prepared by conventional methods common to one skilled in the art of ice cream manufacturing to serve as a sweetness target. Then a set of seven (7) ice cream samples were sweetened with R,R-monatin monopotassium salt using the ingredients listed in Table 13. The amount of monatin in the seven samples was about 35 ppm, about 40 ppm, about 45 ppm, about 50 ppm, about 55 ppm, about 60 ppm and about 70 ppm. Each of the seven samples of monatin-sweetened ice cream were compared to the target ice cream sample containing 13% sucrose. The monatin-sweetened ice cream that most closely matched the sweetness of the target sucrose sample was chosen.

[7] = Diluted Yogurt (pH 4.6), monatin 10 ppm
[8] = Diluted Yogurt (pH 4.6), monatin 20 ppm
[9] = Diluted Yogurt (pH 4.6), monatin 30 ppm
[10] = Diluted Yogurt (pH 4.6), monatin 40 ppm
[11] = Diluted Yogurt (pH 4.6), monatin 50 ppm
[12] = Milk, 2% fat (pH 6.8), monatin 5 ppm
[13] = Milk, 2% fat (pH 6.8), monatin 10 ppm
[14] = Milk, 2% fat (pH 6.8), monatin 20 ppm
[15] = Milk, 2% fat (pH 6.8), monatin 30 ppm
[16] = Milk, 2% fat (pH 6.8), monatin 40 ppm
[17] = Milk, 2% fat (pH 6.8), monatin 50 ppm

For NC(CC(O)(Cc1c[nH]c2ccccc12)C(=O)O)C(=O)O (stereo not drawn) [R,R-Monatin, 2R,4R-Monatin mono potassium salt], which “Sucrose Equivalency Value” ([1]; pH 3.0 citric/citrate buffer) is on record?
The value was 8.6%.

And the “Sucrose Equivalency Value” ([1]; pH 7.0 water)?
The value was 8.4%.

What about the “monatin concentration that most closely matched the sweetness of milk sweetened to 10% sucrose” value [2] of the same molecule?
Its value is “about 35 ppm”.

What about the “times as sweet as sucrose” value [2] of the same molecule?
Its value is “about 2800 times”.

And the “monatin concentration that most closely matched the sweetness of yogurt sweetened to 8% sucrose” value ([3]; strawberry yogurt)?
The value was “about 25 ppm”.

And the “times as sweet as sucrose” value ([3]; strawberry yogurt)?
Its value is “about 3200 times”.

What about the SEV ([3]; strawberry yogurt with 25 ppm R,R monatin) of the same molecule?
The SEV was “about 8%”.

And the “Relative Sweetness” value [4, 7]?
The value was 4,000 ×sucrose.

What about the SEV [4, 7] of the same molecule?
Its SEV is 4.0 % sucrose; w/v.

And the “Relative Sweetness” value [4, 8]?
Its value is 3,300 ×sucrose.

What about the SEV [4, 8] of the same molecule?
Its SEV is 6.6 % sucrose; w/v.

What about the “Relative Sweetness” value [4, 9] of the same molecule?
Its value is 3,100 ×sucrose.

What about the SEV [4, 9] of the same molecule?
The SEV was 9.3 % sucrose; w/v.

And the “Relative Sweetness” value [4, 10]?
Its value is 2,625 ×sucrose.

And the SEV [4, 10]?
The SEV was 10.5 % sucrose; w/v.

And the “Relative Sweetness” value [4, 11]?
The value was 2,280 ×sucrose.

And the SEV [4, 11]?
The SEV was 11.4 % sucrose; w/v.

What about the “Relative Sweetness” value [4, 12] of the same molecule?
The value was 4,000 ×sucrose.

And the SEV [4, 12]?
The SEV was 2.0 % sucrose; w/v.

And the “Relative Sweetness” value [4, 13]?
Its value is 3,000 ×sucrose.

What about the SEV [4, 13] of the same molecule?
The SEV was 3.0 % sucrose; w/v.

What about the “Relative Sweetness” value [4, 14] of the same molecule?
The value was 2,750 ×sucrose.

And the SEV [4, 14]?
Its SEV is 5.5 % sucrose; w/v.

What about the “Relative Sweetness” value [4, 15] of the same molecule?
Its value is 2,270 ×sucrose.

What about the SEV [4, 15] of the same molecule?
Its SEV is 6.8 % sucrose; w/v.

What about the “Relative Sweetness” value [4, 16] of the same molecule?
The value was 2,100 ×sucrose.

And the SEV [4, 16]?
Its SEV is 8.4 % sucrose; w/v.

And the “Relative Sweetness” value [4, 17]?
The value was 1,780 ×sucrose.

And the SEV [4, 17]?
The SEV was 8.9 % sucrose; w/v.

And the “times sweeter than sucrose by weight” value [5]?
The value was 2000-2400 times.

What about the “monatin concentration that most closely matched the sweetness of ice cream sweetened to 13% sucrose” value [6] of the same molecule?
The value was “about 45 ppm”.

What about the “times as sweet as sucrose” value [6] of the same molecule?
Its value is “about 2800 times”.
